The results in this text go back to paper PMC10057994, “Click Triazole as a Linker for Pretargeting Strategies: Synthesis, Docking Investigations, Fluorescence Diagnosis, and Antibacterial Action Studies” (Molecules, 2023).

One series concerns RAW264.7 cell. Nature of the series: MTT cell proliferation (cytotoxicity) assay. It counts as cell-based. As to conditions: for IC50: MTT, 36 h treatment. The procedure:
The “click” reaction conditions in click chemistry require copper sulfate and sodium ascorbate as catalysts, and the copper sulfate concentration is generally too high, which causes certain damage to the body. RAW264.7 cells were used as test cells to explore the safe concentration of copper sulfate, compounds A1–A3, and probes T1–T4. The macrophage suspension of RAW264.7 cells in the logarithmic growth stage was adjusted to 5 × 10^4 cells/mL and seeded in 96-well plates with 100 µL in each well. The cells were incubated at 37 °C and 5% CO2 for 24 h and then treated with different concentrations of copper sulfate solution (each concentration was repeated three times). After being treated with copper sulfate for 36 h, 10 µL MTT (5 mg/mL) was added to each well, and the cells were incubated at 37 °C and 5% CO2 for 4 h. Then, the MTT in the well was discarded, and 100 µL DMSO was added to each well and incubated at 37 °C for 0.5 h until the crystals were completely dissolved. The microplate reader read the OD490 nm of each well. The cytotoxicity assays of compounds A1–A3 and probes T1–T4 were the same as above. The cell proliferation inhibition rate (IC50) was calculated using SPSS 16.0 software.

The test system of series [1] is Agrobacterium tumefaciens. Nature of the series: Antibacterial activity, LB plate microdilution test. To be noted: for antibacterial activity: cultured for 8 h. Type of series: cell-based. The procedure: The compounds A1–A3 were evaluated through the plate microdilution test according to the guidelines of the Clinical and Laboratory Standards Institute (CLSI). A colony of Agrobacterium tumefaciens grown on lysogeny broth (LB) agar plates was inoculated in lysogeny broth (LB) and incubated in an aerobic environment at 28 °C overnight (ON). The bacterial suspension was diluted to 5 × 10^7 CFU/mL, and 200 µL was added to each well, obtaining a final density of […]. Meanwhile, A1–A3 were serially diluted in 1X PBS at concentrations of 30, 50, and 100 µmol/L. Cefuroxime was used as an antibiotic control and DMSO as a solvent control. Subsequently, the plates were incubated at 28 °C in aerobiosis, and the growth rate was evaluated after 4, 6, 8, and 10 h using an ultraviolet (UV) detector.
(Dilution methods test growth across graded concentrations, often in twofold steps.)

Series [2] can be described thus: UV-Vis absorption spectroscopy. It counts as physicochemical. To be noted: in methanol. Here is the method:
(§1) The ^1H NMR and ^13C NMR spectra were recorded at 25 °C in a Nuclear Magnetic Resonance Spectrophotometer (DRX-400, Bruker, Bremerhaven, Germany) at 400 MHz for ^1H NMR in DMSO-d6 and 100 MHz for ^13C NMR in CDCl3. Thin layer chromatography (TLC) was carried out on silica gel (GF254, Qingdao Haiyang Chemical Co., Ltd., Qingdao, China), and the spots were visualized with UV light at 254 nm. Fluorescence spectra were recorded on a fluorescence spectrophotometer (F-2710, Hitachi, Tokyo, Japan). UV-Vis spectrophotometer (UH5300, Hitachi, Tokyo, Japan) was used for the absorption measurements and the spectra were typically measured in the range of 190–1100 nm.
The sample of the compounds (A1–A3) was diluted to 1 × 10^−5 mg/mL. After thorough mixing, the target molecules were detected using a UV spectrophotometer at UV absorption wavelengths. The volume of the sample needed to be greater than 2/3 of the cuvette volume. All experiments were performed in triplicate.

Series [3] is described as follows: Fluorescence excitation and emission spectra. It counts as physicochemical. The procedure: as §1
The sample of probes (T1–T4) was diluted to 1 × 10^−5 mg/mL for fluorescence, excitation, and emission spectra measurement by a fluorescence spectrophotometer. All experiments were performed in triplicate.

Series [4] has as its system Agrobacterium tumefaciens. Nature of the series: Fluorescence detection of Agrobacterium tumefaciens by diagnostic molecules (click in situ, fluorescence microscope). To be noted: inhibitor 8 h (A1 30, A2 50, A3 50 µmol/L), then same amount of probe, copper sulfate and sodium ascorbate, click 1 h; probe-only controls. Type of series: cell-based. Here is the method: An amount of 3 mL of the standby Agrobacterium solution at a concentration of 5 × 10^3 CFU/mL was added to the shaker tube. Then, 200 µL of A1 at a concentration of 30 µmol/L, A2 at a concentration of 50 µmol/L, and A3 at a concentration of 50 µmol/L were added at 28 °C. After incubation at 200 RPM/min for 8 h, the upper layer of the medium was poured off after centrifugation and washed three times with PBS, and the bacterial solution was resuspended by adding 1 mL of medium. Then, the same amount of probe was added, and 15 µL copper sulfate and sodium ascorbate were added at a concentration of 10 µmol/L. The control group was treated with only the corresponding probe, and the concentration of each probe was the same as that of the corresponding inhibitor. After adding probes to each group, the “click” reaction was complete for 1 h. After centrifugation, the upper layer of the medium was poured off and washed three times with PBS. Then, 1 mL of the medium was added to resuspend the bacterial solution, and 10 µL was added to the slide for fluorescence microscope detection and observation of the fluorescence of Agrobacterium in each group.

As to `C#CCOc1ccc(O)c(C(=O)N/N=C/c2ccc(-c3ccccc3[N+](=O)[O-])o2)c1` [A1, (E)-2-hydroxy-N’-((5-(2-nitrophenyl)furan-2-yl)methylene)-5-(prop-2-ynyloxy)benzohydrazide], the IC50 with RAW264.7 cell (Mus musculus) was above 98 µM. In addition, the antibacterial activity in series [1] (30 µmol/L) is on record as 35%. For the same molecule, the “absorption maxima (λmax)” value in series [2] is reported as 352 nm.

With `C#CCNc1cccc(C(=O)N/N=C/c2ccc(-c3ccccc3[N+](=O)[O-])o2)c1` [A2, (E)-N’-((5-(2-nitrophenyl)furan-2-yl)methylene)-3-(prop-2-ynylamino)benzohydrazide], in the series with RAW264.7 cell (Mus musculus), the IC50 was above 96 µM. In series [1] (50 µmol/L), this molecule had an antibacterial activity of 45%. For the same molecule, the “antibacterial activity (in words)” value in series [1] (Agrobacterium tumefaciens, 30-100 µmol/L, 4-10 h) is “better antibacterial activity than A1 and A3”. The “absorption maxima (λmax)” value in series [2] stood at 332 nm.

`[N-]=[N+]=NCCOc1ccc(O)c(C(=O)N/N=C/c2ccc(-c3ccccc3[N+](=O)[O-])o2)c1` [A3, (E)-5-(2-azidoethoxy)-2-hydroxy-N’-((5-(2-nitrophenyl)furan-2-yl)methylene)benzohydrazide]: in the series with RAW264.7 cell (Mus musculus), the IC50 is above 100 µM. Besides, the antibacterial activity in series [1] (50 µmol/L) was 35%. Further, in series [2], the “absorption maxima (λmax)” value is listed as 346 nm.

The molecule `[N-]=[N+]=NCCOc1ccc(/C=N/c2ccccc2OCc2ccccc2[N+](=O)[O-])c(O)c1` [T1, (E)-2-((2-(2-nitrobenzyloxy)phenylimino)methyl)-5-(2-azidoethoxy)phenol] came in with an IC50 with RAW264.7 cell (Mus musculus) above 100 µM. Also, in series [3], the best emission wavelength is 310 nm and the best excitation wavelength was found to be 273 nm.

In the series with RAW264.7 cell (Mus musculus), `C#CCOc1ccc(/C=N/c2ccccc2O)c(O)c1` [T2, (E)-2-((2-hydroxyphenylimino)methyl)-5-(prop-2-ynyloxy)phenol] showed an IC50 above 92 µM. Moreover, in series [3], the best emission wavelength came to 315 nm and the best excitation wavelength was 273 nm.

Take `C#CCOc1ccc(-c2nc3ccccc3s2)c(O)c1` [T3, 2-(benzo[d]thiazol-2-yl)-5-(prop-2-ynyloxy)phenol]: the melting point is 179 to 180 °C. The same molecule yielded a half-inhibitory concentration (IC50) in the series with RAW264.7 cell (Mus musculus) above 100 µM. Moreover, the “fluorescence of Agrobacterium tumefaciens” value in series [4] is “did not emit fluorescence”. In series [3], the best emission wavelength is listed as 377 nm and the best excitation wavelength was found to be 327 nm.

In the case of `O=S(=O)([O-])[O-].[Cu+2]` [copper sulfate], the cell survival rate with RAW264.7 cell (copper sulfate concentration 12 µmol/L) came out at 80%.

In turn, “(E)-5-(3-azidopropoxy)-2-((2-hydroxyphenylimino)methyl)phenol [T4]” gave an IC50 in the series with RAW264.7 cell above 87 µM. In addition, the “fluorescence of Agrobacterium tumefaciens” value in series [4] was “did not emit fluorescence”. In series [3], this molecule displayed a best emission wavelength of 313 nm and a best excitation wavelength of 272 nm.

As a reminder, the IC50 is the concentration at which inhibition is half-maximal. The term melting point denotes the temperature of the solid-liquid transition.
